Values quoted from earlier work, collected in patent publication US20080267939A1, “SYNERGISTIC ANTI-HYPERTENSIVE PHYTO-NUTRACEUTICAL COMPOSITION” (priority 2006, published 2008).

Legend:
[1] = tested on: bacterial resistance mechanism (multidrug pump); conditions: in the presence of 5′-MHC
[2] = tested on: aged diabetic Zucker fatty rats
[3] = tested on: blood pressure; conditions: lower doses
[4] = tested on: patients having class III or IV cardiomiopathy; conditions: group A, during CoQ10 treatment, oral
[5] = target: platelet activating factor (PAF) membrane receptors (Homo sapiens, UniProt P25105)
platelet activating factor (PAF) membrane receptors, sequence (P25105 whole entry): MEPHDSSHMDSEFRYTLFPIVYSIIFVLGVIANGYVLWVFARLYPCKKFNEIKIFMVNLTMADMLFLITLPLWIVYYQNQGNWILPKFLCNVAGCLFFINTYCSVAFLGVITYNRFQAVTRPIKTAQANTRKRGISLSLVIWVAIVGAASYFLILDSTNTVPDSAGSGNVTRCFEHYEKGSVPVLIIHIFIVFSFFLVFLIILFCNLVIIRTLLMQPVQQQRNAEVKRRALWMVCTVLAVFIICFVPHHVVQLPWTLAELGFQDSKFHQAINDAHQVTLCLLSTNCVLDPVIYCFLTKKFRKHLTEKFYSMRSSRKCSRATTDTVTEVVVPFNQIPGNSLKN

[6] = target: T1, endothelial NO synthase (eNOS) (Homo sapiens, UniProt P29474)
T1 sequence (P29474 1-1203): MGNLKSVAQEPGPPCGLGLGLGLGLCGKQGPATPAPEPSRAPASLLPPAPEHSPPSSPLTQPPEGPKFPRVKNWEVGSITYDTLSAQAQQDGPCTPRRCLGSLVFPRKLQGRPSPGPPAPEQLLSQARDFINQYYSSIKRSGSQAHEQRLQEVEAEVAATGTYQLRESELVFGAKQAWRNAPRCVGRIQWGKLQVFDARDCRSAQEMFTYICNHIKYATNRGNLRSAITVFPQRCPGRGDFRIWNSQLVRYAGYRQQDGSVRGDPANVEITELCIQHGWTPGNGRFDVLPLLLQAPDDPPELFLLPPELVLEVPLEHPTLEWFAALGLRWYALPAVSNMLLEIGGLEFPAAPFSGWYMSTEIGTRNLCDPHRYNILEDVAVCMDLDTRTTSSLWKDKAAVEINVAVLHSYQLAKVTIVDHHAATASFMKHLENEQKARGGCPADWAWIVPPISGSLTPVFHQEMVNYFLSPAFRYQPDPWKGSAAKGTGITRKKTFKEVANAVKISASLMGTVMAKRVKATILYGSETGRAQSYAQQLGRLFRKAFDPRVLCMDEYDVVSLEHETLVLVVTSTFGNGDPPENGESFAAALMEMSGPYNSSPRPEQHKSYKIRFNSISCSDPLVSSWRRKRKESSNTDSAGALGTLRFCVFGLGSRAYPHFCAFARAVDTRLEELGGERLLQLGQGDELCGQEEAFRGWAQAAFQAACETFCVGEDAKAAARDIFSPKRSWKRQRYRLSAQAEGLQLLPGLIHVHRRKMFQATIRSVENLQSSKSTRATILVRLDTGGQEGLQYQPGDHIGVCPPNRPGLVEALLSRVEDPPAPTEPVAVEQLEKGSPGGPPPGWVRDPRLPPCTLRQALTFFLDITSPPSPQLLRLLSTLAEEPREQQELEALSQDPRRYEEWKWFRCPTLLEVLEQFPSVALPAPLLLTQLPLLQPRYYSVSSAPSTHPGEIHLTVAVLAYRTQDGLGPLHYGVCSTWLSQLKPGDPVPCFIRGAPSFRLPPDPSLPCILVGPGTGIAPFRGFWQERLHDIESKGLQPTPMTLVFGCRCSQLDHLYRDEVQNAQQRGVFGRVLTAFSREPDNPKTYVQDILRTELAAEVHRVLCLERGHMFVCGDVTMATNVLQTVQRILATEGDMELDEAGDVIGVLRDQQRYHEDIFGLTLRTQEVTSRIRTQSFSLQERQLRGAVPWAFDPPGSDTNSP

[7] = tested on: blood pressure; conditions: in vivo
[8] = tested on: rabbit aortic rings; conditions: pre-contracted rabbit aortic rings
[9] = tested on: renal hypertensive dogs; conditions: chronic oral administration
[10] = tested on: vascular smooth muscle cells
[11] = tested on: blood pressure; conditions: clinically
[12] = tested on: rat aorta; conditions: endothelium-intact and endothelium-denuded rat aorta
[13] = target: T2, L-type calcium channel (Cavia porcellus, UniProt O35505); conditions: isolated guinea pig ventricular myocytes
T2 construct: calcium channel in isolated guinea pig ventricular myocytes; endogenous in cells; host or cells: isolated guinea pig ventricular myocytes

[14] = target: T3, L-type calcium channel (Rattus norvegicus, UniProt P22002); conditions: rat ventricular myocytes
T3 construct: Effect of puerarin on L-type calcium channel in isolated rat ventricular myocytes; endogenous in cells; host or cells: isolated rat ventricular myocytes
T3 sequence (P22002 whole entry, other chains not shown): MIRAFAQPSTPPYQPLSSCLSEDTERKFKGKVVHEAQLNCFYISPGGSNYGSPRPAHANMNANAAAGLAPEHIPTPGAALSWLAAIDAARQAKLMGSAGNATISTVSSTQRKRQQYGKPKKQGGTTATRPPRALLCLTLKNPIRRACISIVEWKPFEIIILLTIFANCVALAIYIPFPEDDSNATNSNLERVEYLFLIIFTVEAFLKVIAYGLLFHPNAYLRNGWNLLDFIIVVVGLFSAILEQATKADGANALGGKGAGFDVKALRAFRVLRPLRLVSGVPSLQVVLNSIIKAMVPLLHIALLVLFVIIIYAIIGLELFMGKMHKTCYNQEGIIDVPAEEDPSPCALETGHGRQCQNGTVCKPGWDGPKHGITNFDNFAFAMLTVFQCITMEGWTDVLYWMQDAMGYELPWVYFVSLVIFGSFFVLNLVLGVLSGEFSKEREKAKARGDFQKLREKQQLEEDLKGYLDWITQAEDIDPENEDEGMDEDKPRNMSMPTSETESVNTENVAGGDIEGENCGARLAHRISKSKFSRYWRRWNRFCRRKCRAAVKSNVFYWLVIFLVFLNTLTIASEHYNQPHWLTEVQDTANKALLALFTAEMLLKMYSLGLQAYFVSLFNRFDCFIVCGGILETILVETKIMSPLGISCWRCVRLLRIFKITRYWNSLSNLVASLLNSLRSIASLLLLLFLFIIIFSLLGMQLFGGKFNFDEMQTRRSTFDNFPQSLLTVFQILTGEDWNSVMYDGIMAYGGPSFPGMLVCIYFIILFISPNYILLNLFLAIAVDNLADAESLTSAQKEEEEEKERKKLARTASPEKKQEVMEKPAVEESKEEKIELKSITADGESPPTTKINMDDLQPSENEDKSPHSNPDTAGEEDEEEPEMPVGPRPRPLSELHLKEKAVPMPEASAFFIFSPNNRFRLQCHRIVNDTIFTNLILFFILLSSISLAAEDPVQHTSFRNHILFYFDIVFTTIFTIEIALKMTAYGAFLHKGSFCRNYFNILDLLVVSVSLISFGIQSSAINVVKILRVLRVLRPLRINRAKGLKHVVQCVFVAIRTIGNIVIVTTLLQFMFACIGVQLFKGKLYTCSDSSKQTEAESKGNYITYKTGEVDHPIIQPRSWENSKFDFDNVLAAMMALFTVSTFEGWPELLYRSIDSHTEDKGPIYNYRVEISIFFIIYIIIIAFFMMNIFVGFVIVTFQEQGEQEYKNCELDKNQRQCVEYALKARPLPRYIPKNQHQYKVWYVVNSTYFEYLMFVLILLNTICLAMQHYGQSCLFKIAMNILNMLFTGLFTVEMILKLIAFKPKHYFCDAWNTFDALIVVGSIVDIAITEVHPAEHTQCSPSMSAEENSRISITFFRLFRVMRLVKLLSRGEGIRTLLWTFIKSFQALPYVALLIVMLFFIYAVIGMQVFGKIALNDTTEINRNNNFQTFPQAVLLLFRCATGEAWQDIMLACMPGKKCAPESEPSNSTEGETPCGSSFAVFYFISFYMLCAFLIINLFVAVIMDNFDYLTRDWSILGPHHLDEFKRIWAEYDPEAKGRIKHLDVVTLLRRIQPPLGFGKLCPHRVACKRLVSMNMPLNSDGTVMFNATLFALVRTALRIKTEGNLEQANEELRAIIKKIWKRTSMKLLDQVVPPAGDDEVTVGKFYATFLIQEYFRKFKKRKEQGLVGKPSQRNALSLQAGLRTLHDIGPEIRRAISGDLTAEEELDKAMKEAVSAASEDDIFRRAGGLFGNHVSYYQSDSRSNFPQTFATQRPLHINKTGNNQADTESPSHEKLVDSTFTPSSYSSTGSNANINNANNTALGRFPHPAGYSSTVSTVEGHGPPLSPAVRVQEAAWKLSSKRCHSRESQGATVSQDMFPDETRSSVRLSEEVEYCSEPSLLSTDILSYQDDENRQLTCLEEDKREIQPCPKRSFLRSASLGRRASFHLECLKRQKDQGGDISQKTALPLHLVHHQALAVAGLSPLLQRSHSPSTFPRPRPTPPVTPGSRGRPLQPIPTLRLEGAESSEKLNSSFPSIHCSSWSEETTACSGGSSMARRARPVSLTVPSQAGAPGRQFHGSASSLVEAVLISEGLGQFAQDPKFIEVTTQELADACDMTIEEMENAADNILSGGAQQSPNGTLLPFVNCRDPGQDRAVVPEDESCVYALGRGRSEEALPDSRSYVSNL
T3 sequence (P54290 25-944 partner limits assumed, other chains not shown): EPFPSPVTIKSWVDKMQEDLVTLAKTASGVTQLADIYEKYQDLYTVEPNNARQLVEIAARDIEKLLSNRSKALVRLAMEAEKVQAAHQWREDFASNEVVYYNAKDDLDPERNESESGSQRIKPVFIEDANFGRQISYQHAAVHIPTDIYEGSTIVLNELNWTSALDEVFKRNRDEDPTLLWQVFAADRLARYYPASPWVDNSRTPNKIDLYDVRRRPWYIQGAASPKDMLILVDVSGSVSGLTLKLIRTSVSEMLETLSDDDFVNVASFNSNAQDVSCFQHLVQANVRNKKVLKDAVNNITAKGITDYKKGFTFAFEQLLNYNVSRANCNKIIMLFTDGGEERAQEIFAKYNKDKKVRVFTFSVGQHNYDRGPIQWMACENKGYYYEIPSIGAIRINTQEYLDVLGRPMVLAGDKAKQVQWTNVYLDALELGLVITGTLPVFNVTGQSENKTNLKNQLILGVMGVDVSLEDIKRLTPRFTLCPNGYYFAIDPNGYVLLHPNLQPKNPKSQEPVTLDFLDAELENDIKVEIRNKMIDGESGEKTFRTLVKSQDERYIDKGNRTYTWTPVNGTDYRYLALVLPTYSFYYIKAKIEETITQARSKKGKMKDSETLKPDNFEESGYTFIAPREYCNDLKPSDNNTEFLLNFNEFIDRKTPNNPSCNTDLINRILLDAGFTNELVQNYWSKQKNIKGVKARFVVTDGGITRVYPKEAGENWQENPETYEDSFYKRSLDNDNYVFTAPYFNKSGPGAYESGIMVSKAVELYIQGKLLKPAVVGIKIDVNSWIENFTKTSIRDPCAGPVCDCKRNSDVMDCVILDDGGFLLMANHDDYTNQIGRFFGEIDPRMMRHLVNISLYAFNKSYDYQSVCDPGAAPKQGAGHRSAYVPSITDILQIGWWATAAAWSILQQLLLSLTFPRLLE
T3 sequence (P54290 945-1091 partner limits assumed, other chains not shown): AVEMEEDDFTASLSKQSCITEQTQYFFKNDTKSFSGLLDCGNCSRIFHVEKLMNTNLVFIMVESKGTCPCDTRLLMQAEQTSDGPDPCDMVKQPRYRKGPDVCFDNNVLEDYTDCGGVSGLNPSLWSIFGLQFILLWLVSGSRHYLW

[15] = tested on: rats with pre-eclampsia
[16] = tested on: laboratory animals
[17] = tested on: spontaneously hypertensive rats
[18] = tested on: vascular smooth muscle cells; remark: listed apart in the source
[19] = tested on: rat aorta

COc1cc([C@H]2Oc3cc(-c4cc(=O)c5c(O)cc(O)cc5o4)cc(OC)c3O[C@@H]2CO)ccc1O (racemic) [5′-MHC, 5′-methoxyhydnocarpin]
accumulation of berberine in the cells [1]: strong increase

O=C(O)CC(O)(C(=O)O)C(O)C(=O)O (single isomer, unassigned; (-)) [(−)-hydroxycitric acid (HCA), (−)-hydroxycitric acid]
blood pressures compared to control [2]: significantly lowered blood pressures

CCCCC[C@H](O)CC(=O)CCc1ccc(O)c(OC)c1 [(6)-gingerol]
response on the blood pressure [3]: produced depressor response

CCCCC/C=C/C(=O)CCc1ccc(O)c(OC)c1 [(6)-shogaol]
response on the blood pressure [3]: produced depressor response

COC1=C(OC)C(=O)C(C/C=C(\C)CC/C=C(\C)CC/C=C(\C)CC/C=C(\C)CC/C=C(\C)CC/C=C(\C)CC/C=C(\C)CC/C=C(\C)CC/C=C(\C)CCC=C(C)C)=C(C)C1=O [CoQ10, Coenzyme Q10]
cardiac function [4]: significant increases in cardiac function

CC1C(=O)OC2C(O)C34C5CC(C(C)(C)C)C36C(OC(=O)C6O)OC4(C(=O)O5)C12O (centres unmarked) [Ginkgolide B]
inhibition of platelet activating factor (PAF) [5]: powerful inhibitor

CC(C)=CCC[C@](C)(O[C@@H]1O[C@H](CO)[C@@H](O)[C@H](O)[C@H]1O)[C@H]1CC[C@]2(C)[C@@H]1[C@H](O)C[C@@H]1[C@@]3(C)CC[C@H](O)C(C)(C)[C@@H]3[C@@H](O[C@@H]3O[C@H](CO)[C@@H](O)[C@H](O)[C@H]3O[C@@H]3O[C@@H](C)[C@H](O)[C@@H](O)[C@H]3O)C[C@]12C [Ginsenoside Re]
eNOS activation / NO release [6]: activate endothelial NO synthase (eNOS) to release NO

C[C@@H]1O[C@@H](O[C@@H]2[C@@H](O)[C@H](OCCc3ccc(O)c(O)c3)O[C@H](CO)[C@H]2OC(=O)/C=C/c2ccc(O)c(O)c2)[C@H](O[C@@H]2OC[C@@H](O)[C@@H](O)[C@@H]2O)[C@H](O)[C@H]1O [Lavandulifolioside]
blood pressure [7]: decreases blood pressure

O=C(O)CC[N+](=O)[O-] [NPA, 3-Nitropropionic acid]
relaxation of aortic rings [8]: dose-dependent relaxation
blood pressure [9]: decrease in blood pressure

O=c1c(-c2ccc(O)cc2)coc2c([C@@H]3O[C@H](CO)[C@@H](O)[C@H](O)[C@H]3O)c(O)ccc12 [Puerarin, puerarin]
proliferation and DNA synthesis of vascular smooth muscle cells [10]: suppress
systolic and diastolic blood pressure [11]: reduces both systolic and diastolic blood pressure
contractions induced by phenylephrine [12]: completely relaxed
effect on L-type calcium channel [13]: blocking effect on L-type calcium channel in a concentration dependent manner
L-type calcium current [14]: inhibit L-type calcium current
NO concentration and blood pressure [15]: elevate the level of NO concentration and decrease blood pressure
decrease of blood pressure [16]: 15%

COc1cc(/C=C/C(=O)O)ccc1O [ferulic acid]
carotid arterial pressure ([17]; intravenous injection, anesthetized hypertensive rats): dose dependently reduced
systolic blood pressure ([17]; oral administration, hypertensive rats): significantly decreased

CCC/C=C1\OC(=O)C2=C1CCC=C2 [ligustilide]
vascular smooth muscle cells proliferation and cell cycle progression [18]: significantly inhibited

Cycloleonuripeptide E
vasorelaxant effects [19]: moderate vasorelaxant effects

cycloleonuripeptide F
vasorelaxant effects [19]: moderate vasorelaxant effects

niacin-bound chromium
blood pressures compared to control [2]: significantly lowered blood pressures
